{
  "source": "paper PMC10360995",
  "about": "“Discovery of 3-((3-amino-1H-indazol-4-yl)ethynyl)-N-(4-((4-ethylpiperazin-1-yl)methyl)-3-(trifluoromethyl)phenyl)benzamide (AKE-72), a potent Pan-BCR-ABL inhibitor including the T315I gatekeeper resistant mutant” (Journal of Enzyme Inhibition and Medicinal Chemistry, 2023)",
  "key": {"K-562 [1]": {"tested_on": "K-562", "parameters": "method as in PMID 32961435", "details": "cited from earlier work"}, "HL-60(TB) [2]": {"tested_on": "HL-60(TB)", "test": "cells", "details": "Homo sapiens"}, "CCRF-CEM": {"tested_on": "CCRF-CEM", "test": "NCI SRB anti-leukemic assay"}, "SR": {"tested_on": "SR", "test": "NCI SRB anti-leukemic assay"}, "BCR-ABL^WT": {"target": "BCR-ABL^WT (Homo sapiens, UniProt P00519)", "sequence (P00519 whole entry)": "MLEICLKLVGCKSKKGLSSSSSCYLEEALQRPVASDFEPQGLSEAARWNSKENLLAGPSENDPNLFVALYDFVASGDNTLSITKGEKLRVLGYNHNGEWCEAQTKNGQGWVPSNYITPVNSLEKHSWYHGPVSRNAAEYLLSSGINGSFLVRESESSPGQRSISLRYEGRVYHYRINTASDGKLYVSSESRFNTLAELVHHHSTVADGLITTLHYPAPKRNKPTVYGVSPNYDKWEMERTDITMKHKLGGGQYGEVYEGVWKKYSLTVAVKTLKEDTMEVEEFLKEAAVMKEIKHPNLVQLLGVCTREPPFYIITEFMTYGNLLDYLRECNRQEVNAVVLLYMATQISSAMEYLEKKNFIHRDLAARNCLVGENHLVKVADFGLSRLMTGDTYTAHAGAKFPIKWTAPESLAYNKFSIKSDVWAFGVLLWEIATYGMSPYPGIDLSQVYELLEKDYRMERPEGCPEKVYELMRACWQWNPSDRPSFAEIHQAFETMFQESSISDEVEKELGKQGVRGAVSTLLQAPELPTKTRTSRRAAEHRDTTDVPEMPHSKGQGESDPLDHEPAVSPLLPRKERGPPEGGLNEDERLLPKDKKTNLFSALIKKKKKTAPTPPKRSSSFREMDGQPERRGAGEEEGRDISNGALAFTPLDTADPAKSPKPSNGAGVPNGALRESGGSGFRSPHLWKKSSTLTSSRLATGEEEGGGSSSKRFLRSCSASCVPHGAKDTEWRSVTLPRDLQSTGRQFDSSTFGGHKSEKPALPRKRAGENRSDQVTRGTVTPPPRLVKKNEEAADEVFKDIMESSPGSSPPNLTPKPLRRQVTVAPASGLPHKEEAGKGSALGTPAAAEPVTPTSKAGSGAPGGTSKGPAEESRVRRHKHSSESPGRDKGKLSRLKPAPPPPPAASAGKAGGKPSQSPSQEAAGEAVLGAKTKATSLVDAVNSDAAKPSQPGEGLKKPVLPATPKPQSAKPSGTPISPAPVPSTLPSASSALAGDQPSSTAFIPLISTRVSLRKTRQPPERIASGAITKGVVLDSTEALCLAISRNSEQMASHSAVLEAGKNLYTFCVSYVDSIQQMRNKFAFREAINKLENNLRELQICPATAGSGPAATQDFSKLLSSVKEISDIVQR", "details": "cited from earlier work"}, "RPMI-8226": {"tested_on": "RPMI-8226", "test": "NCI SRB anti-leukemic assay"}, "HL-60(TB) [3]": {"tested_on": "HL-60(TB)"}, "K-562 [4]": {"tested_on": "K-562", "test": "NCI SRB anti-leukemic assay"}, "MOLT-4": {"tested_on": "MOLT-4", "test": "NCI SRB anti-leukemic assay"}, "CML": {"tested_on": "CML", "details": "cited from earlier work"}, "Ba/F3 mouse pro-B cells": {"tested_on": "Ba/F3 mouse pro-B cells", "test": "Cellular proliferation assay", "format": "cell-based", "details": "BaF3, read-out: GI50 Ba/F3 (mouse pro-B cell)", "source_text": "We also tested AKE-72 against BCR-ABL-positive and BCR-ABL-negative cell lines.\n1.8. Cytochrome P450 Assay\nThe binding site was defined based"}},
  "note": "Where two headings read alike, the source gives them in different places.",
  "data": [
    {"smiles": "Nc1n[nH]c2cccc(C#Cc3cccc(NC(=O)c4ccc(N5CCOCC5)c(C(F)(F)F)c4)c3)c12", "note": "[I, reference compound]", "values": [
      {"measurement": "GI50", "setting": "K-562 [1]", "result": "< 10", "unit": "nM"},
      {"measurement": "GI50", "setting": "HL-60(TB) [2]; HL-60, read-out: GI50 HL-60(TB)", "result": 1400, "unit": "nM"},
      {"measurement": "CC50", "setting": "HL-60(TB) [2]; HL-60, read-out: LC50 (half-maximal lethal concentration) HL-60(TB)", "result": "> 100000", "unit": "nM"},
      {"measurement": "GI50", "setting": "CCRF-CEM; Homo sapiens, CCRF-CEM, read-out: GI50 CCRF-CEM", "result": 1360, "unit": "nM"},
      {"measurement": "CC50", "setting": "CCRF-CEM; Homo sapiens, CCRF-CEM, read-out: LC50 (half-maximal lethal concentration) CCRF-CEM", "result": "> 100000", "unit": "nM"},
      {"measurement": "TGI (total growth inhibition) CCRF-CEM", "setting": "CCRF-CEM; five-dose assay", "result": 6580, "unit": "nM"},
      {"measurement": "GI % CCRF-CEM", "setting": "CCRF-CEM; single dose 10 µM", "result": 9.49, "unit": "%"},
      {"measurement": "GI50", "setting": "SR; Homo sapiens, SR, read-out: GI50 SR", "result": 2400, "unit": "nM"},
      {"measurement": "CC50", "setting": "SR; Homo sapiens, SR, read-out: LC50 (half-maximal lethal concentration) SR", "result": "> 100000", "unit": "nM"},
      {"measurement": "TGI (total growth inhibition) SR", "setting": "SR; five-dose assay", "result": ">100000", "unit": "nM"},
      {"measurement": "GI % SR", "setting": "SR; single dose 10 µM", "result": 87.42, "unit": "%"},
      {"measurement": "IC50", "setting": "BCR-ABL^WT", "result": "4.6 ± 0.6", "unit": "nM"},
      {"measurement": "GI50", "setting": "RPMI-8226; Homo sapiens, RPMI-8226, read-out: GI50 RPMI-8226", "result": 1980, "unit": "nM"},
      {"measurement": "CC50", "setting": "RPMI-8226; Homo sapiens, RPMI-8226, read-out: LC50 (half-maximal lethal concentration) RPMI-8226", "result": "> 100000", "unit": "nM"},
      {"measurement": "TGI (total growth inhibition) RPMI-8226", "setting": "RPMI-8226; five-dose assay", "result": 6500, "unit": "nM"},
      {"measurement": "GI % RPMI-8226", "setting": "RPMI-8226; single dose 10 µM", "result": "L (lethal effect (% GI > 100))"},
      {"measurement": "TGI (total growth inhibition) HL-60(TB)", "setting": "HL-60(TB) [3]; five-dose assay", "result": 10500, "unit": "nM"},
      {"measurement": "GI % HL-60(TB)", "setting": "HL-60(TB) [3]; single dose 10 µM", "result": 99.01, "unit": "%"},
      {"measurement": "GI50", "setting": "K-562 [4]; Homo sapiens, K562, read-out: GI50 K-562", "result": "< 10", "unit": "nM"},
      {"measurement": "CC50", "setting": "K-562 [4]; Homo sapiens, K562, read-out: LC50 (half-maximal lethal concentration) K-562", "result": "> 100000", "unit": "nM"},
      {"measurement": "TGI (total growth inhibition) K-562", "setting": "K-562 [4]; five-dose assay", "result": 13500, "unit": "nM"},
      {"measurement": "TGI K-562", "setting": "K-562 [4]; five-dose assay", "result": 13500, "unit": "nM"},
      {"measurement": "GI % K-562", "setting": "K-562 [4]; single dose 10 µM", "result": 97.96, "unit": "%"},
      {"measurement": "GI50", "setting": "MOLT-4; Homo sapiens, MOLT-4, read-out: GI50 MOLT-4", "result": 1310, "unit": "nM"},
      {"measurement": "CC50", "setting": "MOLT-4; Homo sapiens, MOLT-4, read-out: LC50 (half-maximal lethal concentration) MOLT-4", "result": "> 100000", "unit": "nM"},
      {"measurement": "TGI (total growth inhibition) MOLT-4", "setting": "MOLT-4; five-dose assay", "result": 5710, "unit": "nM"},
      {"measurement": "GI % MOLT-4", "setting": "MOLT-4; single dose 10 µM", "result": 92.33, "unit": "%"}
    ]},
    {"smiles": "Cc1ccc(NC(=O)c2ccc(CN3CCN(C)CC3)cc2)cc1Nc1nccc(-c2cccnc2)n1", "note": "[Imatinib]", "values": [
      {"measurement": "long-term success rate", "setting": "CML; CML, after 10 years", "result": 83.3, "unit": "%"},
      {"measurement": "overall 5-year survival rate", "setting": "CML; patients diagnosed with CML", "result": 89, "unit": "%"}
    ]},
    {"smiles": "Cc1ccc(C(=O)Nc2ccc(CN3CCN(C)CC3)c(C(F)(F)F)c2)cc1C#Cc1cnc2cccnn12", "note": "[Ponatinib, reference compound]", "values": [
      {"measurement": "GI50", "setting": "Ba/F3 mouse pro-B cells", "result": "708 ± 37", "unit": "nM"}
    ]}
  ]
}
